Here are results for one molecule from patent publication US10112943B2, “Substituted imidazoles as gamma secretase modulators” (Janssen Pharmaceutica NV, priority 2012, dated 2018).

A value given as a limit tells only on which side of the number the result lay.

Data set [1] concerns the target T1, γ-secretase (Homo sapiens, UniProt P49768).
T1 construct: endogenous in cells; host or cells: SKNBE2 human neuroblastoma cells carrying hAPP 695 wild type
Put plainly: Screening for γ-secretase-modulating activity: Aβ42 in cell supernatant (Alphalisa sandwich immuno-assay). The conditions noted are these: SKNBE2 human neuroblastoma cells carrying hAPP 695-wild type, overnight incubation. In kind it is cell-based. As for the experimental part: (§1) A) Screening of the Compounds of the Invention for γ-Secretase-Modulating Activity
(§2) Screening was carried out using SKNBE2 human neuroblastoma cells carrying the hAPP 695-wild type, grown in Dulbecco's Modified Eagle's Medium/Nutrient mixture F-12 (DMEM/NUT-mix F-12) (HAM) provided by Invitrogen (cat no. 10371-029) containing 5% Serum/Fe supplemented with 1% non-essential amino acids, 1-glutamine 2 mM, Hepes 15 mM, penicillin 50 U/ml (units/ml) and streptomycin 50 μg/ml. Cells were grown to near confluency.
(§3) The screening was performed using a modification of the assay as described in Citron et al (1997) Nature Medicine 3: 67. Briefly, cells were plated in a 384-well plate at 10^4 cells/well in Ultraculture (Lonza, BE12-725F) supplemented with 1% glutamine (Invitrogen, 25030-024), 1% non-essential amino acid (NEAA), penicillin 50 U/ml en streptomycin 50 μg/ml in the presence of test compound at different test concentrations. The cell/compound mixture was incubated overnight at 37° C., 5% CO2. The next day the media were assayed by two sandwich immuno-assays, for Aβ42 and Aβtotal.
(§4) Aβtotal and Aβ42 concentrations were quantified in the cell supernatant using the Aphalisa technology (Perkin Elmer). Alphalisa is a sandwich assay using biotinylated antibody attached to streptavidin coated donorbeads and antibody conjugated to acceptor beads. In the presence of antigen, the beads come into close proximity. The excitation of the donor beads provokes the release of singlet oxygen molecules that trigger a cascade of energy transfer in the acceptor beads, resulting in light emission. To quantify the amount of Aβ42 in the cell supernatant, monoclonal antibody specific to the C-terminus of Aβ42 (JRF/cAβ42/26) was coupled to the receptor beads and biotinylated antibody specific to the N-terminus of Aβ (JRF/AβN/25) was used to react with the donor beads. To quantify the amount of Aβtotal in the cell supernatant, monoclonal antibody specific to the N-terminus of Aβ (JRF/AβN/25) was coupled to the receptor beads and biotinylated antibody specific to the mid region of Aβ (biotinylated 4G8) was used to react with the donor beads.
To obtain the values reported in Table 3, the data are calculated as percentage of the maximum amount of amyloid Beta 42 measured in the absence of the test compound.
(§5) The sigmoidal dose response curves were analyzed using non-linear regression analysis with percentage of the control plotted against the log concentration of the compound. A 4-parameter equation was used to determine the IC50.

In data set [2] the target is T1, γ-secretase. Briefly: Screening for γ-secretase-modulating activity: Aβtotal in cell supernatant (Alphalisa sandwich immuno-assay). In kind it is cell-based. The conditions noted are these: SKNBE2 human neuroblastoma cells carrying hAPP 695-wild type, overnight incubation. As for the experimental part:
as §1, §2, §3, §4, §5
(In general: Bead proximity is the source of the signal in Alpha formats.)

Usually IC50 stands for the concentration at which inhibition is half-maximal. Read a high IC50 as a need for much substance. The term melting point denotes the temperature, or range, at which the solid turns liquid. For the molecule `Cc1cn(-c2ccc3n(c2=O)C[C@@H]2CC[C@@H](Cc4cc(C(F)(F)F)cc(C(F)(F)F)c4)N2C3=O)cn1` (single isomer, unassigned) [Compound 4, 3-[[3,5-bis(trifluoromethyl)phenyl]methyl]-2,3,11,11a-tetrahydro-8-(4-methyl-1H-imidazol-1-yl)-1H-pyrido[1,2-a]pyrrolo[1,2-d]pyrazine-5,9-dione ((3S, 11aS) or (3R, 11aR))], the melting point is 254.8 °C. On γ-secretase [1], this molecule yielded a concentration for half-maximal inhibition (IC50) of 50 nM. Also, the half-maximal inhibitory concentration (IC50) at γ-secretase [2] is above 10000 nM.
